Reference: US6433014B1, “Compounds consisting in particular of effectors of the central nervous system receptors sensitive excitatory amino acids, preparation and biological applications” (Centre National de la Recherche Scientifique (C.N.R.S.), priority 1997, dated 2002)

What was measured:
[1] = target: T1, mGluR1a (Rattus norvegicus, UniProt P23385); test: accumulation of inositol phosphates (phospholipase C activation) in transfected HEK 293 cells expressing mGluR1a; format: cell-based
T1 construct: expressed in transfected cells; host or cells: HEK 293
T1 sequence (P23385 19-1199): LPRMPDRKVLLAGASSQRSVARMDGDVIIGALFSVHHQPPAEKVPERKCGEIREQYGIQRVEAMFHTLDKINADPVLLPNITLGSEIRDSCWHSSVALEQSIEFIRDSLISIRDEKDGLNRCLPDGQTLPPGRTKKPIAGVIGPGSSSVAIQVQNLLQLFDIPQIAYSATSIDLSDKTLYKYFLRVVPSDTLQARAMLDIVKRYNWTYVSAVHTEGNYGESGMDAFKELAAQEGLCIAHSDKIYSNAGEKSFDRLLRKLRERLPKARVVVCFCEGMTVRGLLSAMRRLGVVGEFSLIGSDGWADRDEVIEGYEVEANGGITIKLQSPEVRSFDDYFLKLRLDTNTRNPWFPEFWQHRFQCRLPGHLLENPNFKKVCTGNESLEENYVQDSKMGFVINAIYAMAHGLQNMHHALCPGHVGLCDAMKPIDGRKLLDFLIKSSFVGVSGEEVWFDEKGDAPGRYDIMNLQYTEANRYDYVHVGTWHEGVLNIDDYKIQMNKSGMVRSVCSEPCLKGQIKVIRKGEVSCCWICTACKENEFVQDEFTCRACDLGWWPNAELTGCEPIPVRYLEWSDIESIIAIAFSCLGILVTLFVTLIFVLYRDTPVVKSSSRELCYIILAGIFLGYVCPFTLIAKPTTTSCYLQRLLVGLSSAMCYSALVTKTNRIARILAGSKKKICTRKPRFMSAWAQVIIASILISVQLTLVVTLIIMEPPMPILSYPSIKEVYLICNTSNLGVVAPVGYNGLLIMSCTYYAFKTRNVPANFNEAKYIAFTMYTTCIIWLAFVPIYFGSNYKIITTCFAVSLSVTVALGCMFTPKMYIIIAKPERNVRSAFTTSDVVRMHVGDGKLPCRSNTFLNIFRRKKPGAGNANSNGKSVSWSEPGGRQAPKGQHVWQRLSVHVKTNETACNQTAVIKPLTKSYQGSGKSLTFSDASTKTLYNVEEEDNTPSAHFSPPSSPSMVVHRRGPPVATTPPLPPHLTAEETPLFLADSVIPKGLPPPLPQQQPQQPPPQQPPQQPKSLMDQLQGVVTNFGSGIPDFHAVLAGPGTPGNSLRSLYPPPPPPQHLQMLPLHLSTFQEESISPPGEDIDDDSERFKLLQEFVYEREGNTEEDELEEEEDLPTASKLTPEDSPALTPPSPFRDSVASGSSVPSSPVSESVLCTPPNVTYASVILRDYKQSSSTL
Procedure: (§1) For this purpose, the activation of phospholipase C was measured (accumulation of inositol phosphates).
(§2) The HEK 293 cells are cultured in a Dulbecco's modified Eagle medium (DMEM, Gibco BRL) to which 10% of foetal calf serum has been added, and transfected by electroporation as previously described by Gomeza et al., Molecular Pharmacology, 1996, 50:923-930 (1996).
(§3) The electroporation is carried out in a total volume of 300 μl with 10 μg of supporting DNA, plasmid DNA containing mGluR1a (0.3 μg), mGluR2 (2 μg) or mGluR4a (5 μg) and 10^7 cells.
(§4) Determination of the accumulation of inositol phosphates (IP).
(§5) The determination of the accumulation of IP in transfected cells is carried out as described by Gomeza after labelling the cells for approximately 14 hours with [^3H]-myo-inositol (23.4 Ci/mol, NEN, France).
(§6) Stimulation is carried out for 30 minutes in a medium containing 10 mM LiCl in the presence of the drugs tested. The formation of the basic IP is determined after 30 minutes of incubation in the presence of 10 mM LiCl and pyruvate glutamate transaminase (1 U/ml) degrading the glutamate (Glu) and 2 mM of pyruvate in order to avoid the possible effects of Glu released by the cells. The results are expressed in the quantity of IP product with respect to the radioactivity present in the membranes.

[2] = target: T2, mGluR2 (Rattus norvegicus, UniProt P31421); test: accumulation of inositol phosphates in transfected HEK 293 cells expressing mGluR2 co-expressed with chimeric G protein; format: cell-based
T2 construct: expressed in transfected cells; host or cells: HEK 293
T2 sequence (P31421 19-872): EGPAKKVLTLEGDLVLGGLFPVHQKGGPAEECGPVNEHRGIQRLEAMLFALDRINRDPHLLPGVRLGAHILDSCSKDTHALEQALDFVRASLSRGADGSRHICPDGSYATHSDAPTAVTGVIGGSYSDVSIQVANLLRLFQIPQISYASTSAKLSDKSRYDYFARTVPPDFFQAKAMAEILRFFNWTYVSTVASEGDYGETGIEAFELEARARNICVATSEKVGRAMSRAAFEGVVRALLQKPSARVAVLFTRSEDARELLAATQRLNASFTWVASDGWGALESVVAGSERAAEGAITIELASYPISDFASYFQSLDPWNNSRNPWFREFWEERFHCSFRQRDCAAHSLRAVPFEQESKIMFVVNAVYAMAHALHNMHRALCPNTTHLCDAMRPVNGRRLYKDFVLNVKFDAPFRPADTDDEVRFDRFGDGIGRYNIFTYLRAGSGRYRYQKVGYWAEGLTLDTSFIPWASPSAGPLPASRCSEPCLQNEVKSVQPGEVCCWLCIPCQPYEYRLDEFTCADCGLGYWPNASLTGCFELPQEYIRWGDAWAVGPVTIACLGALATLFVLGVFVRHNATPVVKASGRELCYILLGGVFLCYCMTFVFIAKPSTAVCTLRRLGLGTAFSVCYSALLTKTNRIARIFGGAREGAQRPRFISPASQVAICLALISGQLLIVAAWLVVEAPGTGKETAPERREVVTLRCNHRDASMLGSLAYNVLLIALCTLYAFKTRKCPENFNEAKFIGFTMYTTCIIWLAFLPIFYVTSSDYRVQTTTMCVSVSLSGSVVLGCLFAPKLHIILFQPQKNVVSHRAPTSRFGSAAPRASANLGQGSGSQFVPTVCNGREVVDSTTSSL
Procedure: as §1, §2, §3
In order to allow activation of the phospholipase C by mGluR2 and mGluR4a, which effect is easier to measure than the inhibition of the production of cAMP, these receptors are co-expressed with chimeric G, Gqo5 and Gqi9 proteins, as described by Gomeza. The pharmacological profiles of these 2 receptors determined according to this method, have already been described as identical to those characterized by measuring the inhibition of the formation of cAMP.
as §4, §5, §6

[3] = target: T3, mGluR4a (Rattus norvegicus, UniProt P31423); test: accumulation of inositol phosphates in transfected HEK 293 cells expressing mGluR4a co-expressed with chimeric G protein; format: cell-based
T3 construct: expressed in transfected cells; host or cells: HEK 293
T3 sequence (P31423 33-912): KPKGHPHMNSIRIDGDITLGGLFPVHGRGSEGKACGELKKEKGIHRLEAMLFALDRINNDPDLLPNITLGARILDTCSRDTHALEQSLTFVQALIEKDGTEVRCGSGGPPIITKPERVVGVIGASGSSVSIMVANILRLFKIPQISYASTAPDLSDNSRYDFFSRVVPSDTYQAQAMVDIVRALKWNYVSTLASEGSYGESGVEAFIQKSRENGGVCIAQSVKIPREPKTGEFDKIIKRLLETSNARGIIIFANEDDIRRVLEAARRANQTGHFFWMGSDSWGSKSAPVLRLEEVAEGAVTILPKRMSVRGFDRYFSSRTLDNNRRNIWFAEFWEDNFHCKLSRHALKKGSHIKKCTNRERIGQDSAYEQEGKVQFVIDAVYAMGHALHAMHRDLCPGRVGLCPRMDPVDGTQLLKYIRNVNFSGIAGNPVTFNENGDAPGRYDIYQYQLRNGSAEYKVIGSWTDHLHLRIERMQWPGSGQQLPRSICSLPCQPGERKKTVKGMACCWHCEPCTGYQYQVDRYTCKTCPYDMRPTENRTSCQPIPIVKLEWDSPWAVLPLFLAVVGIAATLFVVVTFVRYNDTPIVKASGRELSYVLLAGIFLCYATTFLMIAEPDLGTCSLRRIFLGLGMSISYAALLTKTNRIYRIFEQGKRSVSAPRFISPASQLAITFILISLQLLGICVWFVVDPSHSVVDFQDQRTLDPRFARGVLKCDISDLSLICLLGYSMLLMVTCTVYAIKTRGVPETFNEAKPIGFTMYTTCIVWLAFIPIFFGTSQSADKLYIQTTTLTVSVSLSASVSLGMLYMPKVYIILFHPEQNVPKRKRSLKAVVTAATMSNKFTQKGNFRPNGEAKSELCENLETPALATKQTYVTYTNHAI
Procedure: as §1, §2, §3, §4, §5, §6

[4] = test system: ionotropic receptors (NMDA, AMPA and kainate receptors); test: patch clamp recording of granule cells of the cerebellum; format: cell-based, mice; settings: ACPT 1 mM; NMDA or kainate 100 μM
Procedure: Culture and recording of the granule cells of the cerebellum
The granule cells of the cerebellum are cultured from 7 day-old baby mice as described by Van-Vliet, B. J., J. of Neurochemistry, 1989, .52, 1229-1239.
Recording is carried out using the technique known as a “patch clamp” in the full cell configuration and the molecules are applied using a rapid application technique.
Initially, tests were carried out in order to check whether the ACPT's were capable of activating or exercising an antagonist effect vis-à-vis the ionotropic receptors. These tests have shown that none of the ACPT enantiomers induces a current when they are placed in contact with the granule cells of the cerebellum at a concentration of 1 mM.
In the same batches, currents are on the contrary seen to be induced by NMDA (100 μM) or kainate (100 μM, which concentration allows activation of both the AMPA and kainate receptors), as envisaged given the activation of the NMDA and non-NMDA receptors.

With NC1(C(=O)O)CC(C(=O)O)C(C(=O)O)C1 (racemic) [(=)-ACPT-III, 1-amino-cyclopentane-1,3,4 tricarboxylic acid] the “inhibition of the formation of IP induced by Glu in cells expressing mGluR1a, in words” value [1] was “inhibit the formation of the IP's induced by the Glu”, the Kb ([1]; HEK 293 cells, IP accumulation induced by Glu, Shild representation, read-out: mGluR1a KB (antagonist effect)) was over 300 µM and the EC50 ([1]; HEK 293 cells, IP accumulation, read-out: mGluR1a EC50 (agonist effect)) was over 3000 µM. The “inhibition of the responses induced by Glu in cells expressing mGluR2, in words” value [2] was “inhibit the responses induced by Glu”, the Kb ([2]; HEK 293 cells, IP accumulation induced by Glu, Shild representation, read-out: mGluR2 KB (antagonist effect)) was over 300 µM and the EC50 ([2]; HEK 293 cells, IP accumulation, read-out: mGluR2 EC50 (agonist effect)) was over 3000 µM. For the same compound, the Kb ([3]; IP accumulation induced by Glu, Shild representation, read-out: mGluR4a KB (antagonist effect)) was over 3000 µM, the EC50 ([3]; IP accumulation, read-out: mGluR4a EC50 (agonist effect)) was 40 ± 8 µM and the “inhibition of responses induced by NMDA or kainate, in words” value [4] was “No significant inhibition”.
